Laboratory results from article PMC8145107 (Pharmaceutics, 2021).
Where two headings read alike, the source gives them in different places.

Experiments:
[1] = system: Salmonella typhimurium TA100; details: for Ames test outcome versus vehicle control: TA100, 48 h, J2 40 μg/plate, NA49 200 μg/plate
Description: (§1) To perform the Ames test of J2 and NA49, the number of revertant colonies was counted on each compound-treated plate at the maximum concentration at which the compound was soluble and nontoxic to the S. typhimurium tester strains (Supplementary Material S1). The ratio of the number of revertant colonies in the treated plate to colonies in the vehicle plate. […] For the hERG K^+ channel binding assay of J2 and NA49, the inhibitory activity against the hERG K^+ channel and its ligand was measured using a red fluorescent hERG channel ligand tracer. The final activity was assessed as a decrease in the degree of fluorescence polarization. […]
(§2) The test was conducted with maximum concentration at which the compound was
(§3) soluble and nontoxic to the S. typhimurium tester strains. #Factor = No. of revertant colonies
(§4) of treated plate colonies of vehicle control plate. […]

[2] = system: Salmonella typhimurium TA98; details: for Ames test outcome versus vehicle control: TA98, 48 h, J2 40 μg/plate, NA49 200 μg/plate
Description: as §1, §2, §3, §4

[3] = Liver microsomal phase I stability assay (rat); type: in vitro ADME; details: rat liver microsomes
[4] = target: CYP450 2C19 (Homo sapiens, UniProt P33261); assay: CYP450 enzyme inhibition, 2C19; type: in vitro ADME; details: compound 0.05~50 μM; read-out: IC50 against CYP450 isotype 2C19
CYP450 2C19, sequence (P33261 whole entry): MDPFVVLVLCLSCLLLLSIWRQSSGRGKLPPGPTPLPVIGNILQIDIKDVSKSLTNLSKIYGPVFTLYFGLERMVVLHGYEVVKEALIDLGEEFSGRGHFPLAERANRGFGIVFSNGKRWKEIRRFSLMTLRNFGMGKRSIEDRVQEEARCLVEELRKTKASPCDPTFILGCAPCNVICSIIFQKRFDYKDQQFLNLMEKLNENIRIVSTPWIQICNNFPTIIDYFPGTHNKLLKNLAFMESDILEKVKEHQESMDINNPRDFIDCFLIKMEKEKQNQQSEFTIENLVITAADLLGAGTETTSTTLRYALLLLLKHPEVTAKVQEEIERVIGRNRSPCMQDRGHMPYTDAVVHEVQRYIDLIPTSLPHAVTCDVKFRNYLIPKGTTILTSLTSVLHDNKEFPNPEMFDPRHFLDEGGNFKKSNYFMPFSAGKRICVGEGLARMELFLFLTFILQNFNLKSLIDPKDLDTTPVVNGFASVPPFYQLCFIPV
Description: Permeability was evaluated with a parallel artificial membrane permeability (PAMPA) assay using an artificially generated lipid-infused membrane.

[5] = Pharmacokinetic study after IV injection in rats; type: in vivo; details: male, Sprague-Dawley, plasma, rat
Text: Male Sprague–Dawley rats (7-week-old) and male Institute of Cancer Research (ICR) mice (5-week-old) were purchased from Orient Bio (Seongnam, Korea) and Samtako Bio (Osan, Korea), respectively. The experimental animals were housed under conventional conditions and fasted overnight before surgery for catheterization. All procedures for animal experiments were in accordance with the guidelines by the Ewha Woman’s University Institutional Animal Care and Use Committee (IACUC, 15-049 and 16-062), Korea.
The HPLC system used for this study was an Agilent HP1100 equipped with a quaternary pump with degasser, a variable wavelength detector, a thermostatted auto-sampler, and an HPLC 2D Agilent ChemStation software. A capcell-pak C18 MG120 column (3.0 × 250 mm, 5 µm, Shiseido, Tokyo, Japan) was used at 25 °C. The mobile phase was composed of water (0.1% trifluoroacetic acid) and acetonitrile (0.1% trifluoroacetic acid) (57:43 (v/v) for J2 and 50:50 (v/v) for NA49, respectively), filtered through a 0.45 μm Millipore filter and degassed prior to use, and the flow rate was 0.5 mL/min. UV detection was performed at 248 nm for J2 and at 246 nm for NA49, and the injection volume was 40 µL for both compounds. […] The accuracy (%) was calculated by dividing the mean of the measured drug concentration by the theoretical drug concentration. […] After extraction, the supernatant was transferred to a clean insert for HPLC analysis.
J2 and NA49 were dissolved in 10% DMAc and 10% Tween® 80 solution in saline to a concentration of 2.5 mg/mL for pharmacokinetic studies. The common carotid artery of the rat was catheterized under anesthesia using isoflurane the day before administration of J2 and NA49 [27]. Rats were divided into four groups. J2 and NA49 were administered to rats by intravenous (IV) injection at doses of 2 mg/kg and 10 mg/kg, respectively. Blood samples (0.2~0.25 mL) were collected at 0, 0.033, 0.083, 0.167, 0.33, 0.67, 1, 2, 3, 5, 7, 9, and 24 h following IV administration. The plasma samples obtained after centrifugation of the blood samples were stored at −20°C until HPLC analysis. The following pharmacokinetic parameters of J2 and NA49 were estimated by non-compartmental analysis using WinNonlin® Professional version 5.2 software (Pharsight Corporation, Mountain View, CA, USA): Initial drug concentration (C0), area under the plasma concentration–time curve from 0 h to the final sampling time point (AUC0-last), elimination half-life (t1/2), apparent volume of distribution (Vd), and total clearance (Cl).

[6] = system: HSP27 recombinant protein; assay: HSP27 cross-linking with recombinant protein (Western blot); type: biochemical; details: 10 μM, 3 h
Description: For polyacrylamide gel electrophoresis (PAGE) and Western blot (WB) analysis, cells were lysed with radioimmunoprecipitation assay (RIPA) buffer (50 mM Tris-HCl [pH 7.5], 150 mM NaCl, 1% NP-40, 0.1% sodium dodecyl sulfate (SDS), and 1% sodium deoxycholate) supplemented with 1 mM Na3VO4, 1 mM dithiothreitol (DTT), 1 mM phenyl-methyl-sulfonyl fluoride (PMSF), and protease inhibitor cocktail (Calbiochem). The samples were boiled for 5 min, and equal amounts of protein were analyzed by SDS-PAGE. […]
Figure S3. […] (A) HSP25 WT protein was pretreated with NAC (N-acetyl-L-cysteine) at 20 mM for 30 min and then treated with J2 or NA49 at 10 μM. After 3 h, the dimerization of proteins was altered. ( B) NCI-H460 cells were tr eated with J2 or NA49 (0, 1, 5, 10 and 20 μM) for 24 h, and cell lysates were detected by Western blot analysis. […]

[7] = target: T1, CYP1A2 (Homo sapiens, UniProt P05177); assay: biochemical
T1 sequence (P05177 1-516): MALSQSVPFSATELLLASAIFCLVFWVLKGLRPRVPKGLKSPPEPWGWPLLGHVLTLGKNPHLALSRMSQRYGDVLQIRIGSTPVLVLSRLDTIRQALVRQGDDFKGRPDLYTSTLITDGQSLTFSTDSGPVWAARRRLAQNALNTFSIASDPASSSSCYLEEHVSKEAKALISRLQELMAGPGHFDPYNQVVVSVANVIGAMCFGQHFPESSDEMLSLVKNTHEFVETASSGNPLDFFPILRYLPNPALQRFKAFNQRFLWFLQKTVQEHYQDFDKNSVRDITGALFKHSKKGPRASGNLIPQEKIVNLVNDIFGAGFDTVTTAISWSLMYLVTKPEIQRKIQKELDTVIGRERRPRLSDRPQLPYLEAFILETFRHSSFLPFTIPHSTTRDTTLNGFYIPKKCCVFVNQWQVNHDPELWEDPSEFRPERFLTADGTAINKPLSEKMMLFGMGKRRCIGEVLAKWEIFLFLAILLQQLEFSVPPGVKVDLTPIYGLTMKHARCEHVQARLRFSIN

[8] = TA100, with S-9 mix, J2 40, NA49 200, benzo(a)pyrene 2 μg/plate
[9] = TA100, without S-9 mix, J2 40, NA49 200 μg/plate
[10] = TA98, with S-9 mix, J2 40, NA49 200, benzo(a)pyrene 2 μg/plate
[11] = TA98, without S-9 mix, J2 40, NA49 200, positive controls 1-2 μg/plate

Row | SMILES | Factor (revertant colonies of treated plate/vehicle control plate) [1, 8] | Revertant colonies/plate (Mean ± S.D.) [1, 8] [colonies/plate] | Factor (revertant colonies of treated plate/vehicle control plate) [1, 9] | Revertant colonies/plate (Mean ± S.D.) [1, 9] [colonies/plate] | Ames test outcome versus vehicle control [1] | Factor (revertant colonies of treated plate/vehicle control plate) [2, 10] | Revertant colonies/plate (Mean ± S.D.) [2, 10] [colonies/plate] | Factor (revertant colonies of treated plate/vehicle control plate) [2, 11] | Revertant colonies/plate (Mean ± S.D.) [2, 11] [colonies/plate] | Ames test outcome versus vehicle control [2] | In vitro Metabolic Stability (% of remaining after 30 min) [3] [%] | IC50 [4] [µM] | AUC(0-t) ([5]; 2 mg/kg) [ng·h/mL] | C0 ([5]; 2 mg/kg) [ng/mL] | Vd ([5]; 2 mg/kg) [L] | clearance ([5]; 2 mg/kg) [mL/min] | half-life ([5]; 2 mg/kg) [min] | AUC(0-t) ([5]; 10 mg/kg) [ng·h/mL] | C0 ([5]; 10 mg/kg) [ng/mL] | Vd ([5]; 10 mg/kg) [L] | other results
1 | Cc1cc(=O)c2c(O)cc(OCC3CS3)cc2o1 (stereo not drawn) [J2] | 3.1 | 418 ± 9 | 6.0 | 643 ± 70 | increased bacterial reverse mutation | 3.8 | 65 ± 2 | 3.6 | 57 ± 7 | increased bacterial reverse mutation | 2.6 ± 0.45 | > 50 | 180 ± 50 | 1640 ± 730 | 0.77 ± 0.27 | 46.5 | 11.4 ± 4.2 | 1480 ± 750 | 6960 ± 2600 | 1.05 ± 0.72 | clearance ([5]; 10 mg/kg): 31.7 mL/min; half-life ([5]; 10 mg/kg): 27 ± 18 min; HSP27 cross-linking activity (altered dimerization) [6]: Altered dimerization of HSP27; IC50 [7]: 0.1 µM
2 | COc1ccc(-c2coc3cc(OCC4CS4)ccc3c2=O)c(OC)c1 (stereo not drawn) [NA49] | 1.9 | 262 ± 11 | 2.0 | 229 ± 2 | no significant increase | 1.3 | 22 ± 2 | 1.2 | 19 ± 3 | no significant increase | 5.0 ± 1.33 | > 50 | 210 ± 70 | 720 ± 400 | 3.35 ± 1.69 | 30.7 | 84 ± 50.4 | 1240 ± 590 | 4960 ± 1120 | 4.13 ± 1.87 | clearance ([5]; 10 mg/kg): 30 mL/min; half-life ([5]; 10 mg/kg): 93 ± 28.8 min; HSP27 cross-linking activity (altered dimerization) [6]: stronger cross-linking activity than J2; IC50 [7]: > 50 µM
